In patent US10980805B2, “Aza-pyridone compounds and uses thereof” (Janssen BioPharma, Inc., priority 2013, dated 2021):
Where two headings read alike, the source gives them in different places.

Assays:
[1] = tested on: Influenza strain A549_A/WSN/33 (H1N1); experiment: Influenza antiviral assay (neuraminidase fluorescence readout); format: cell-based, Influenza virus; conditions: read-out: % Inhibition (EC50 class, Table 2)
[2] = molecular target: Full length EN PA (influenza PA endonuclease) (Influenza A virus, UniProt P15659); experiment: EN PA FRET inhibition assay; format: biochemical; conditions: FRET probe, mean of a minimum of two independent experiments, read-out: Potency (IC50 class, Table 3)

Row | SMILES | EC50 ([1]; Influenza A virus) [nM] | IC50 [2] [nM] | EC50 [1] [nM]
1 | CC(C)N1C[C@H](C(c2ccccc2)c2cccc(Cl)c2)n2ncc(=O)c(O)c2C1=O (single isomer, unassigned) [Compound 73-A] | < 20000 | < 250 | –
2 | CC(C)N1C[C@@H](C(c2ccccc2)c2cccc(Cl)c2)n2ncc(=O)c(O)c2C1=O (single isomer, unassigned) [Compound 73-B] | < 20000 | 250 to 1000 | –
3 | CC(C)N1C[C@H](C(c2ccccc2)c2cccc(Cl)c2)n2ncc(=O)c(O)c2C1=O (single isomer, unassigned) [Compound 82-A] | – | < 250 | < 20000
4 | CC(C)N1C[C@@H](C(c2ccccc2)c2cccc(Cl)c2)n2ncc(=O)c(O)c2C1=O (single isomer, unassigned) [Compound 82-B] | – | 250 to 1000 | –
5 | CN1C[C@H](C(c2ccccc2)c2ccccc2)n2ncc(=O)c(O)c2C1=O [Compound 1-A] | < 20000 | < 250 | –
6 | CN1C[C@@H](C(c2ccccc2)c2ccccc2)n2ncc(=O)c(O)c2C1=O [Compound 1-B] | < 20000 | 250 to 1000 | –
7 | CN1CC(C(c2ccccc2)c2ccccc2)n2ncc(=O)c(O)c2C1=O (centres unmarked) [Compound 1] | < 20000 | < 250 | –
8 | CN1CC(Cc2ccccc2)n2ncc(=O)c(O)c2C1=O (centres unmarked) [Compound 2] | – | < 250 | –
9 | CN1CC(CCc2ccccc2)n2ncc(=O)c(O)c2C1=O (centres unmarked) [Compound 3] | – | < 250 | –
10 | Cc1ccccc1CC1CN(C)C(=O)c2c(O)c(=O)cnn21 (centres unmarked) [Compound 4] | – | < 250 | –
11 | CCN1C[C@H](C(c2ccccc2)c2ccccc2)n2ncc(=O)c(O)c2C1=O [Compound 5-A] | < 20000 | < 250 | –
12 | CCN1C[C@@H](C(c2ccccc2)c2ccccc2)n2ncc(=O)c(O)c2C1=O [Compound 5-B] | < 20000 | 250 to 1000 | –
13 | CCN1CC(C(c2ccccc2)c2ccccc2)n2ncc(=O)c(O)c2C1=O (centres unmarked) [Compound 5] | < 20000 | < 250 | –
14 | CC(C)N1C[C@@H](C(c2ccccc2)c2ccccc2)n2ncc(=O)c(O)c2C1=O [Compound 6-B] | < 20000 | 250 to 1000 | –
15 | CC(C)N1CC(C(c2ccccc2)c2ccccc2)n2ncc(=O)c(O)c2C1=O (centres unmarked) [Compound 6] | < 20000 | < 250 | –
16 | CN1C[C@@H](C2c3ccccc3CCc3ccccc32)n2ncc(=O)c(O)c2C1=O [Compound 7-B] | < 20000 | < 250 | –
17 | CN1CC(C2c3ccccc3CCc3ccccc32)n2ncc(=O)c(O)c2C1=O (centres unmarked) [Compound 7] | < 20000 | < 250 | –
18 | O=C1NCC(C(c2ccccc2)c2ccccc2)n2ncc(=O)c(O)c21 (centres unmarked) [Compound 8] | < 20000 | < 250 | –
19 | CN1C[C@H]([C@@H](c2ccccc2)c2cccc(Cl)c2)n2ncc(=O)c(O)c2C1=O [Compound 9-A] | < 20000 | < 250 | –
20 | CN1C[C@H]([C@H](c2ccccc2)c2cccc(Cl)c2)n2ncc(=O)c(O)c2C1=O [Compound 9-B] | < 20000 | < 250 | –
21 | CN1CC(C(c2ccccc2)c2cccc(Cl)c2)n2ncc(=O)c(O)c2C1=O (centres unmarked) [Compound 9] | < 20000 | < 250 | –
22 | O=C1NCC(C2c3ccccc3CSc3c(Cl)cccc32)n2ncc(=O)c(O)c21 (centres unmarked) [Compound 10] | < 20000 | < 250 | –
23 | CC(C)N1CC(=C(c2ccccc2)c2ccccc2)n2ncc(=O)c(O)c2C1=O [Compound 11] | – | < 250 | –

Row | SMILES | EC50 ([1]; Influenza A virus) [nM] | IC50 [2] [nM] | EC50 [1] [nM]
24 | CCN1C[C@H]([C@@H](c2ccccc2)c2cccc(Cl)c2)n2ncc(=O)c(O)c2C1=O [Compound 12-A] | < 20000 | < 250 | –
25 | CCN1C[C@H]([C@H](c2ccccc2)c2cccc(Cl)c2)n2ncc(=O)c(O)c2C1=O [Compound 12-B] | < 20000 | < 250 | –
26 | CCN1C[C@H](C(c2ccccc2)c2cccc(Cl)c2)n2ncc(=O)c(O)c2C1=O (some centres unmarked) [Compound 12-C] | – | < 250 | –
27 | CCN1C[C@@H]([C@@H](c2ccccc2)c2cccc(Cl)c2)n2ncc(=O)c(O)c2C1=O [Compound 12-D] | – | 250 to 1000 | –
28 | CCN1C[C@@H]([C@H](c2ccccc2)c2cccc(Cl)c2)n2ncc(=O)c(O)c2C1=O [Compound 12-E] | – | < 250 | –
29 | CCN1CC(C(c2ccccc2)c2cccc(Cl)c2)n2ncc(=O)c(O)c2C1=O (centres unmarked) [Compound 12] | < 20000 | < 250 | –
30 | O=C1c2c(O)c(=O)cnn2[C@@H](C2c3ccccc3CCc3ccccc32)CN1Cc1ccccc1 [Compound 13-A] | < 20000 | < 250 | –
31 | O=C1c2c(O)c(=O)cnn2[C@H](C2c3ccccc3CCc3ccccc32)CN1Cc1ccccc1 [Compound 13-B] | < 20000 | 250 to 1000 | –
32 | O=C1c2c(O)c(=O)cnn2C(C2c3ccccc3CCc3ccccc32)CN1Cc1ccccc1 (centres unmarked) [Compound 13] | < 20000 | < 250 | –
33 | CCN1C[C@H](C2c3ccccc3CCc3ccccc32)n2ncc(=O)c(O)c2C1=O [Compound 14-A] | < 20000 | < 250 | –
34 | CCN1C[C@@H](C2c3ccccc3CCc3ccccc32)n2ncc(=O)c(O)c2C1=O [Compound 14-B] | – | < 250 | –
35 | CCN1CC(C2c3ccccc3CCc3ccccc32)n2ncc(=O)c(O)c2C1=O (centres unmarked) [Compound 14] | < 20000 | < 250 | –
36 | CC(N1CC(=C(c2ccccc2)c2ccccc2)n2ncc(=O)c(O)c2C1=O)C(F)(F)F (centres unmarked) [Compound 15] | – | ≥ 1000 | –
37 | O=C1NCC(C2c3ccccc3CSc3cc(Cl)ccc32)n2ncc(=O)c(O)c21 (centres unmarked) [Compound 16] | < 20000 | 250 to 1000 | –
38 | CC(C)N1C[C@H](C2c3ccccc3CCc3ccccc32)n2ncc(=O)c(O)c2C1=O [Compound 17-A] | – | < 250 | –
39 | CC(C)N1C[C@@H](C2c3ccccc3CCc3ccccc32)n2ncc(=O)c(O)c2C1=O [Compound 17-B] | < 20000 | < 250 | –
40 | CC(C)N1CC(C2c3ccccc3CCc3ccccc32)n2ncc(=O)c(O)c2C1=O (centres unmarked) [Compound 17] | < 20000 | < 250 | –
41 | C[C@H](N1C[C@H](C(c2ccccc2)c2ccccc2)n2ncc(=O)c(O)c2C1=O)C(F)(F)F [Compound 18-A] | < 20000 | < 250 | –
42 | C[C@@H](N1C[C@@H](C(c2ccccc2)c2ccccc2)n2ncc(=O)c(O)c2C1=O)C(F)(F)F [Compound 18-B] | < 20000 | < 250 | –
43 | CC(N1CC(C(c2ccccc2)c2ccccc2)n2ncc(=O)c(O)c2C1=O)C(F)(F)F (centres unmarked) [Compound 18] | < 20000 | < 250 | –
44 | CN1CC(Cc2ccccc2-c2ccccc2)n2ncc(=O)c(O)c2C1=O (centres unmarked) [Compound 19] | < 20000 | < 250 | –
45 | CC(C)N1CC(C(c2ccccc2)c2cccc(Cl)c2)n2ncc(=O)c(O)c2C1=O (centres unmarked) [Compound 20] | < 20000 | < 250 | –
46 | CCN1C[C@@H](C(c2cccc(F)c2)c2cccc(F)c2)n2ncc(=O)c(O)c2C1=O [Compound 21-B] | < 20000 | < 250 | –

Row | SMILES | EC50 ([1]; Influenza A virus) [nM] | IC50 [2] [nM] | EC50 [1] [nM]
47 | CCN1CC(C(c2cccc(F)c2)c2cccc(F)c2)n2ncc(=O)c(O)c2C1=O (centres unmarked) [Compound 21] | < 20000 | < 250 | –
48 | CN1CC(C(c2cccc(F)c2)c2cccc(F)c2)n2ncc(=O)c(O)c2C1=O (centres unmarked) [Compound 22] | < 20000 | < 250 | –
49 | CN1CC(C(c2ccccc2)c2cccc(F)c2)n2ncc(=O)c(O)c2C1=O (centres unmarked) [Compound 23] | < 20000 | < 250 | –
50 | CCN1CC(C(c2ccccc2)c2cccc(F)c2)n2ncc(=O)c(O)c2C1=O (centres unmarked) [Compound 24] | < 20000 | < 250 | –
51 | Cc1cccc(C(c2cccc(C)c2)C2CN(C)C(=O)c3c(O)c(=O)cnn32)c1 (centres unmarked) [Compound 25] | < 20000 | < 250 | –
52 | COc1cccc(C(c2ccccc2)C2CN(C)C(=O)c3c(O)c(=O)cnn32)c1 (centres unmarked) [Compound 26] | < 20000 | < 250 | –
53 | Cc1cccc(C(c2ccccc2)C2CN(C)C(=O)c3c(O)c(=O)cnn32)c1 (centres unmarked) [Compound 27] | < 20000 | < 250 | –
54 | CN1CC(C(c2cccc(Cl)c2)c2cccc(Cl)c2)n2ncc(=O)c(O)c2C1=O (centres unmarked) [Compound 28] | < 20000 | < 250 | –
55 | CN1CC(C2c3ccccc3CCc3cc(Cl)ccc32)n2ncc(=O)c(O)c2C1=O (centres unmarked) [Compound 29] | < 20000 | < 250 | –
56 | CC(C)N1CC(=C2c3ccccc3CCc3ccccc32)n2ncc(=O)c(O)c2C1=O [Compound 30] | 20000 to 100000 | < 250 | –
57 | CN1CC(C2c3ccc(Cl)cc3CCc3cc(Cl)ccc32)n2ncc(=O)c(O)c2C1=O (centres unmarked) [Compound 31] | < 20000 | < 250 | –
58 | CN1CC(C(c2ccccc2)c2ccc(Cl)cc2)n2ncc(=O)c(O)c2C1=O (centres unmarked) [Compound 32] | < 20000 | < 250 | –
59 | C[C@H](N1C[C@H](C2c3ccccc3CCc3ccccc32)n2ncc(=O)c(O)c2C1=O)C(F)(F)F [Compound 33-A] | < 20000 | < 250 | –
60 | C[C@@H](N1C[C@@H](C2c3ccccc3CCc3ccccc32)n2ncc(=O)c(O)c2C1=O)C(F)(F)F [Compound 33-B] | < 20000 | < 250 | –
61 | CCN1CC(C(c2ccccc2)c2cccc(OC)c2)n2ncc(=O)c(O)c2C1=O (centres unmarked) [Compound 34] | < 20000 | < 250 | –
62 | C[C@H](N1CC(C(c2ccccc2)c2ccccc2)n2ncc(=O)c(O)c2C1=O)C(F)(F)F (some centres unmarked) [Compound 35-A] | < 20000 | < 250 | –
63 | C[C@@H](N1CC(C(c2ccccc2)c2ccccc2)n2ncc(=O)c(O)c2C1=O)C(F)(F)F (some centres unmarked) [Compound 35-B] | < 20000 | 250 to 1000 | –
64 | CC(C)N1C[C@@H](C(c2cccc(F)c2)c2cccc(F)c2)n2ncc(=O)c(O)c2C1=O [Compound 41-B] | – | 250 to 1000 | –
65 | CCC(CC)N1CC(C(c2ccccc2)c2ccccc2)n2ncc(=O)c(O)c2C1=O (centres unmarked) [Compound 43] | – | < 250 | –
66 | CC(C)N1CC(C(c2cccc(Cl)c2)c2cccc(Cl)c2)n2ncc(=O)c(O)c2C1=O (centres unmarked) [Compound 44] | – | < 250 | –
67 | [2H]c1c([2H])c([2H])c(C(c2c([2H])c([2H])c([2H])c([2H])c2[2H])[C@H]2CN(C(C)C)C(=O)c3c(OC(=O)C(C)C)c(=O)cnn32)c([2H])c1[2H] [Compound 130] | < 20000 | – | –
